According to patent publication US20080090859A1, “Use of Selective Opiate Receptor Modulators In the Treatment Of Neuropathy” (TIOGA PHARMACEUTICALS, INC., priority 2003, published 2008):

Legend:
[1] = tested on: capsaicin-treated monkey tail (thermal allodynia); experiment: Capsaicin-induced thermal allodynia, tail withdrawal latency in monkey model; type: in vivo; conditions: 45 min after administration; for Tail Withdrawal Latency Mean ± SEM: capsaicin, cut-off 20 sec
Protocol: C) Because neuropatic pain is characterized by allodynia for various sensory modalities, also thermal allodynia was investigated in a monkey model where allodynia was induced by the topical application of […] of capsaicin to the surface of the tail. Allodynia was assessed by the latency for withdrawal of the tail following immersion of the tail into water with non-noxious temperatures of either 38° C. or 42° C. (cut-off latency of 20 sec).

[2] = tested on: L5/L6 spinal nerve ligated rats (tactile allodynia); experiment: Tactile allodynia (Von Frey filaments) in rats with L5 and L6 spinal nerve ligation; type: in vivo, rat
Description: B) Neuropathic pain was induced by surgical […], i.e. the L5 and L6 spinal nerves on one side were tightly ligated in anesthetized rats. After 15 days of recovery, a series of Von Frey filaments (0.4- 15 g) was applied in sequence to the plantar surface of the ligated hind paw to determine the 50% mechanical threshold for foot withdrawal as described before.

[3] = tested on: streptozotocin diabetic rats (tactile allodynia); experiment: Tactile allodynia (Von Frey filaments) in streptozotocin diabetic rats; type: in vivo, rat
Protocol: A) Insulin deficient diabetes was induced in rats by a single injection of streptozotocin (50 mg/kg, intraperitoneally). After having confirmed the development of diabetes by established hyperglycemia, determined in blood samples taken from the rats, asimadoline was administered subcutaneously at doses of 1 mg/kg, 5 mg/kg and 15 mg/kg. For comparison, gabapentin, the most recent treatment for diabetic neuropathy, at 50 mg/kg was included. To determine mechanical threshold (tactile allodynia) for foot withdrawal, a series of Von Frey filaments (minimum 0.25 g; maximum 15 g) was applied in sequence to the plantar surface of the right hindpaw with a pressure that causes the filament to buckle, starting with a filament of a buckling weight of 2 g. Absence of a response after 5 seconds was regarded a negative response, and the next heavier filament was applied. Lifting of the paw was recorded as a positive response, and the next lightest filament were applied. This sequence was continued until four measurements have been made after an initial change in the behavior or until five consecutive negative (given the score of 15 g) or four positive (score of 0.25 g) scores were obtained. The resulting sequence of positive and negative scores was used to determine the 50% response threshold.
That the beneficial effects are indeed due to the opioid mechanism of asimadoline can also be seen in Table 1.

SMILES: CN(C(=O)C(c1ccccc1)c1ccccc1)[C@H](CN1CC[C@H](O)C1)c1ccccc1.Cl [Asimadoline, N-methyl-N-[(1S)-1-phenyl-2-((3S)-3-hydroxypyrrolidin-1-yl)ethyl]-2,2-diphenylacetamide, hydrochloride]
- Tail Withdrawal Latency Mean ± SEM ([1]; 0.01 mg/kg s.c., water 38° C.): 8.0 ± 4.5 s
- Tail Withdrawal Latency Mean ± SEM ([1]; 0.01 mg/kg s.c., water 42° C.): 4.5 ± 2.5 s
- Tail Withdrawal Latency Mean ± SEM ([1]; 0.032 mg/kg s.c., water 38° C.): 19.6 ± 0.4 s
- Tail Withdrawal Latency Mean ± SEM ([1]; 0.032 mg/kg s.c., water 42° C.): 12.8 ± 4.2 s
- effect on thermal allodynia (in words) ([1]; highest dose (0.032 mg/kg s.c.), 38° C. condition): nearly completely abolished thermal allodynia
- 50% Response Threshold Mean ± SEM ([2]; 1 mg/kg p.o., 2 h after administration): 6.4 ± 0.5 g
- 50% Response Threshold Mean ± SEM ([2]; 3 mg/kg p.o., 2 h after administration): 10.1 ± 0.6 g
- 50% Response Threshold Mean ± SEM ([2]; 10 mg/kg p.o., 2 h after administration): 12.0 ± 0.4 g
- effect on tactile allodynia (in words) ([2]; highest dose (10 mg/kg p.o.), 2 h after administration): nearly completely abolished tactile allodynia
- 50% Response Threshold Mean ± SEM ([3]; diabetic rats, 1 mg/kg s.c., 3 h after administration): 2 ± 0.2 g
- 50% Response Threshold Mean ± SEM ([3]; diabetic rats, 5 mg/kg s.c., 3 h after administration): 6 ± 2.0 g
- 50% Response Threshold Mean ± SEM ([3]; diabetic rats, 15 mg/kg s.c., 3 h after administration): 9 ± 1.7 g
- effect on tactile allodynia (in words) ([3]; diabetic rats, highest dose (15 mg/kg s.c.), 3 h after administration): nearly completely abolished tactile allodynia
- anti-allodynic effect after intraplantar injection of kappa antagonist nor-BNI (in words) ([3]; diabetic rats, highest dose of asimadoline + nor-BNI i.pl.): completely abolished
- 50% Response Threshold Mean ± SEM ([3]; diabetic rats, nor-BNI 100 μg i.pl. + Asimadoline 15 mg/kg s.c.): 3 ± 1.0 g

SMILES: NCC1(CC(=O)O)CCCCC1 [Gabapentin, reference compound]
- 50% Response Threshold Mean ± SEM ([2]; 100 mg/kg p.o.): 12.8 ± 1.6 g
- 50% Response Threshold Mean ± SEM ([3]; diabetic rats, 50 mg/kg s.c.): 10 ± 1.9 g

SMILES: Oc1ccc2c3c1O[C@H]1c4[nH]c5c(c4C[C@@]4(O)[C@@H](C2)N(CC2CC2)CC[C@]314)C[C@@]1(O)[C@H]2Cc3ccc(O)c4c3[C@@]1(CCN2CC1CC1)[C@H]5O4 [nor-BNI, nor-binaltorphimine, reference compound]
- 50% Response Threshold Mean ± SEM ([3]; non-diabetic control rats, nor-BNI 100 μg i.pl.): 13 ± 1.6 g
